Experiments:
E. coli [1] = test: MIC in the presence of a fixed concentration (2 μg/mL) of Rifampicin; format: cell-based, Escherichia coli; details: Rifampicin 2 μg/mL, Table 5D
K. pneumoniae [2] = test: as above; format: cell-based, Klebsiella pneumoniae; details: Rifampicin 2 μg/mL, Table 5D
Procedure: (§1) The inoculum was prepared by making a direct suspension of isolated colonies (selected from an 18-24 hour Mueller-Hinton agar plate) adjusted to the 0.5 McFarland standard. […] The assays were performed in duplicate. […] In cases where the duplicate values varied by less than 2-fold, the lower of the two values is reported. If a variation of greater than 2-fold was observed, the assay was considered non-valid. Several of the compounds were subjected to multiple tests, and where this is the case, the MIC reflects the modal value obtained.

A. baumannii [3] = test: MIC in the presence of […] of rifampicin; format: cell-based, Acinetobacter baumannii; details: for MIC in combination with Rifampicin, A. baumannii ATCC BAA-747: A. baumannii ATCC BAA-747, Table 5D; for MIC in combination with Rifampicin, A. baumannii NCTC 13424: A. baumannii NCTC 13424, Table 5D
Procedure: as §1

[4] = system: E. coli strains with elevated MICs to Polymyxin B; test: MIC against strains with elevated MICs to Polymyxin B; format: cell-based, Escherichia coli; details: Table 6D; for MIC E. coli 059: strain 059, elevated MIC to Polymyxin B; for MIC E. coli 060: strain 060, elevated MIC to Polymyxin B; for MIC E. coli 061: strain 061, elevated MIC to Polymyxin B
How it was run: (§2)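 Inoculum was a direct suspension of colonies from an 18-24 hour Mueller-Hinton agar plate, adjusted to the 0.5 McFarland standard. Duplicate assays; the lower value was reported when duplicates differed by less than 2-fold, otherwise the run was invalid. Repeat-tested compounds give the modal MIC.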

[5] = system: K. pneumoniae strains with elevated MICs to Polymyxin B; test: as above; format: cell-based, Klebsiella pneumoniae; details: Table 6D; for MIC K. pneumoniae 062: strain 062, elevated MIC to Polymyxin B; for MIC K. pneumoniae 063: strain 063, elevated MIC to Polymyxin B; for MIC K. pneumoniae 064: strain 064, elevated MIC to Polymyxin B; for MIC K. pneumoniae 655: strain 655, elevated MIC to Polymyxin B
How it was run: as §2

[6] = system: P. aeruginosa strains with elevated MICs to Polymyxin B; test: as above; format: cell-based, Pseudomonas aeruginosa; details: Table 6D; for MIC P. aeruginosa 066: strain 066, elevated MIC to Polymyxin B; for MIC P. aeruginosa 067: strain 067, elevated MIC to Polymyxin B
How it was run: as §2

[7] = system: A. baumanii strains with elevated MICs to Polymyxin B; test: as above; format: cell-based, Acinetobacter baumannii; details: Table 6D; for MIC A. baumannii 053: strain 053, elevated MIC to Polymyxin B; for MIC A. baumannii 056: strain 056, elevated MIC to Polymyxin B; for MIC A. baumannii 068: strain 068, elevated MIC to Polymyxin B; for MIC A. baumannii 070: strain 070, elevated MIC to Polymyxin B
How it was run: as §2

E. coli [8] = details: absence of a second agent, Table 6B
K. pneumoniae [9] = details: absence of a second agent, Table 6B
P. aeruginosa = details: absence of a second agent, Table 6B
A. baumannii [10] = details: absence of a second agent, Table 6B

Row | Substance | MIC in combination with Rifampicin, E. coli ATCC 25922 (E. coli [1]) [micrograms/mL] | MIC in combination with Rifampicin, E. coli NCTC 13441 (E. coli [1]) [micrograms/mL] | MIC in combination with Rifampicin, K. pneumoniae ATCC 4352 (K. pneumoniae [2]) [micrograms/mL] | MIC in combination with Rifampicin, K. pneumoniae ATCC BAA-2146 (K. pneumoniae [2]) [micrograms/mL] | MIC in combination with Rifampicin, A. baumannii ATCC BAA-747 (A. baumannii [3]) [micrograms/mL] | MIC in combination with Rifampicin, A. baumannii NCTC 13424 (A. baumannii [3]) [micrograms/mL] | MIC E. coli 059 [4] [micrograms/mL] | MIC E. coli 060 [4] [micrograms/mL] | MIC E. coli 061 [4] [micrograms/mL] | MIC K. pneumoniae 062 [5] [micrograms/mL] | MIC K. pneumoniae 063 [5] [micrograms/mL] | MIC K. pneumoniae 064 [5] [micrograms/mL] | MIC, E. coli ATCC 25922 (E. coli [8]) [micrograms/mL] | MIC, E. coli NCTC 13441 (E. coli [8]) [micrograms/mL] | MIC, K. pneumoniae ATCC 4352 (K. pneumoniae [9]) [micrograms/mL] | MIC, K. pneumoniae ATCC BAA-2146 (K. pneumoniae [9]) [micrograms/mL] | MIC, P. aeruginosa ATCC 27853 (P. aeruginosa) [micrograms/mL] | MIC, P. aeruginosa CCUG 59347 (P. aeruginosa) [micrograms/mL] | MIC, A. baumannii ATCC BAA-747 (A. baumannii [10]) [micrograms/mL] | MIC, A. baumannii NCTC 13424 (A. baumannii [10]) [micrograms/mL] | also measured
1 | 2-(2-aminoethyl)- undecanoyl polymyxin B nonapeptide [Example D26] | 0.25 | 1 | 0.5 | 4 | 2 | 1 | 0.5 | 2 | 4 | 2 | 4 | 0.5 | 0.5 | 2 | 1 | 2 | 0.5 | 0.5 | 0.5 | 2 | MIC K. pneumoniae 655 [5]: 4 micrograms/mL; MIC P. aeruginosa 066 [6]: 1 micrograms/mL; MIC P. aeruginosa 067 [6]: 8 micrograms/mL; MIC A. baumannii 053 [7]: 8 micrograms/mL; MIC A. baumannii 056 [7]: 4 micrograms/mL; MIC A. baumannii 068 [7]: 2 micrograms/mL; MIC A. baumannii 070 [7]: 2 micrograms/mL
2 | (5-Phenyl-piperidine)- 3-carbonyl polymyxin B nonapeptide [Example D8] | ≤0.015 |  | 0.03 | 0.06 | 0.03 | ≤0.015 |  |  |  |  |  |  | 0.125 | 0.25 | 0.125 | 0.5 | 0.5 | 1 | 0.25 | 0.5 | 
3 | (5-Phenyl-piperidine)- 3-carbonyl polymyxin B nonapeptide [Example D7] | 0.06 | 0.5 | 0.125 | 0.5 | 1 | 0.03 |  |  |  |  |  |  | >8 | >8 | 8 | >8 | 2 | >8 | >8 | >8 | 
4 | (trans-5-cyclohexyl- piperidine)-3-carbonyl polymyxin B nonapeptide [Example D12] | 0.06 | 0.25 | 0.125 | 0.25 | 0.5 | 0.03 |  |  |  |  |  |  | >8 | >8 | >8 | >8 | 1 | 4 | >8 | >8 | 
5 | 2-(2-aminoethyl)- undecanoyl polymyxin B nonapeptide [Example D27] | 0.125 |  | 0.5 | 4 | 1 | 1 | 2 | 4 | 16 | 16 | 64 | 16 | 0.125 | 0.06 | 0.25 | 0.5 | 0.5 | 0.5 | 0.25 | 1 | MIC E. coli 058 ([4]; strain 058, elevated MIC to Polymyxin B): 2 micrograms/mL; MIC K. pneumoniae 655 [5]: 64 micrograms/mL; MIC P. aeruginosa 066 [6]: 16 micrograms/mL; MIC P. aeruginosa 067 [6]: >64 micrograms/mL; MIC A. baumannii 053 [7]: 64 micrograms/mL; MIC A. baumannii 056 [7]: 32 micrograms/mL; MIC A. baumannii 068 [7]: 2 micrograms/mL; MIC A. baumannii 070 [7]: 4 micrograms/mL

From US20210221848A1, “POLYMYXIN DERIVATIVES AND THEIR USE IN COMBINATION THERAPY TOGETHER WITH DIFFERENT ANTIBIOTICS” (priority 2014, published 2021)
